Results as given in patent publication US10758541B2, “Formulations of milciclib and therapeutic combinations of the same for use in the treatment of cancer” (Tiziana Life Sciences PLC, priority 2017, dated 2020).
Where two headings read alike, the source gives them in different places.

Experiments:
MHCC97H cells [1] = assay: IC50 values by cell proliferation assay (WST-1); assay type: cell-based, human
Experimental: (§1) MHCC97H and MHCC97L (highly metastatic hepatocellular carcinoma cell line, derived from humans)
Cells (MHCC97H, MHCC97L, and HepG2.2.15) were cultured for 24 hours in 2% FBS and then were trypsinized, resuspended in 2% FBS and seeded in a rat collagen coated 96-well plate at a density of 10,000 cells/100 μl/well, a day before the experiment and cultured at 37° C. in 5% CO2. The cells were treated the next day with milciclib, sorafenib, regorafenib, sunitinib, and lenvatinib, individually or in combination in DMEM/F12+2% FBS+for 72 hours prior to the addition of WST-1 reagent. About 100 μL media was added to control well. […] To determine cell proliferation by the colorimetric test, 10 μL of WST-1 reagent (Sigma Aldrich, St Louis, Mo.) was added in 100 μL cell culture media and incubated for 2 hours in 5% CO2 at 37° C. At the end of incubation period, the plate was placed on a plate shaker for 1 minute and was monitored using a spectrophotometer at an optical density of 450 nm with a reference wavelength of 600 nm using Tecan F200 and iControl software. IC50 values were determined using GraphPad Prism (GraphPad Software, La Jolla, Calif.). Each experiment was performed in duplicate and repeated 2 times.

MHCC97H cells [2] = assay: EMT transwell invasion assay; assay type: cell-based, human; settings: in combination with milciclib, vs individual treatment, P<0.005
Experimental: (§2) EMT (Epithelial to Mesenchymal Transition) induction employing kit from R&D systems (Cat # CCM017)
(§3) For transwell invasion assay HCC cells were seeded in the top chamber in 6 well transwell plates (Sigma-Aldrich, St. Louis, Mo.) at a density of 100,000 cells/500 μL/well in standard culture media containing 100× StemXVivo® EMT Inducing Media Supplement (R&D systems, Minneapolis, Minn.) and was incubated overnight at 37° C. in humidified CO2 incubator. Next day, EMT inducing media with or without the test articles was added and incubation was continued for 10 days with media changes every 3 days. On the 10th day, the number of cells migrated to the lower chamber was determined using Bio-Rad (Hercules, Calif.) automatic cell counter. Values obtained were expressed as a percentage of invasion and the cell counts of control cells were considered 100%.
(§4) The invasive potential of cancer cells is dependent on losing epithelial characteristics and acquiring a migratory mesenchymal property referred to as Epithelial to Mesenchymal Transition (EMT).

MHCC97L cells [3] = assay: EMT transwell invasion assay; assay type: cell-based, human; settings: in combination with milciclib, vs individual treatment, P<0.005
Experimental: as §2, §3, §4

HepG2.2.15 cells = assay: IC50 values by cell proliferation assay (WST-1); assay type: cell-based; settings: Homo sapiens, read-out: HepG2.2.15 IC50
Source text: (§5) See Shailubhai, K et al. “Atiprimod is an inhibitor of cancer cell proliferation and angiogenesis.” J Exp Ther Oncol. 2004; 4: 267-279; and Choudhari et al. “Deactivation of Akt and STAT3 signaling promotes apoptosis, inhibits proliferation, and enhances the sensitivity of hepatocellular carcinoma cells to an anticancer agent, atiprimod” Molecular Cancer Therapeutics. 2007; 6: 112-121. References are incorporated herein in their entireties.
HepG2.2.15 cells are derived from the human hepatoblastoma cell line HepG2.
(§6) Cells (MHCC97H, MHCC97L, and HepG2.2.15) were cultured for 24 hours in 2% FBS and then were trypsinized, resuspended in 2% FBS and seeded in a rat collagen coated 96-well plate at a density of 10,000 cells/100 μl/well, a day before the experiment and cultured at 37° C. in 5% CO2. The cells were treated the next day with milciclib, sorafenib, regorafenib, sunitinib, and lenvatinib, individually or in combination in DMEM/F12+2% FBS+for 72 hours prior to the addition of WST-1 reagent. About 100 μL media was added to control well. After cells had been cultured for 72 hours with different drug concentrations, cells were washed 3 times with sterile 1× Phosphate buffered saline (PBS). To determine cell proliferation by the colorimetric test, 10 μL of WST-1 reagent (Sigma Aldrich, St Louis, Mo.) was added in 100 μL cell culture media and incubated for 2 hours in 5% CO2 at 37° C. At the end of incubation period, the plate was placed on a plate shaker for 1 minute and was monitored using a spectrophotometer at an optical density of 450 nm with a reference wavelength of 600 nm using Tecan F200 and iControl software. IC50 values were determined using GraphPad Prism (GraphPad Software, La Jolla, Calif.). Each experiment was performed in duplicate and repeated 2 times.

MHCC97L cells [4] = assay: IC50 values by cell proliferation assay (WST-1); assay type: cell-based; settings: Homo sapiens, individual inhibitor, 72 hours
Source text: as §5, §1, §6

alpha-fetoprotein (AFP) = assay: Serum AFP in orthotopic HCC mouse model; assay type: in vivo, mice; settings: milciclib 30 mg/kg, sorafenib 20 mg/kg, oral, vs vehicle
Experimental: MHCC97H cells were seeded at a density of 500,000 cells/2 mL/well on a 6 well culture plate and incubated overnight at 37° C. in a humidified CO2 incubator. Cells were then treated with 1.3 μM milciclib or vehicle in DMEM/F12+2% FBS for 72 hours. Subsequently, cells were lysed in RIPA buffer, the supernatant was collected and used to perform ELISA assay as per the manufacturer's instructions. In orthotopic HCC mouse model, levels of serum marker alpha-fetoprotein (AFP) were determined on day 0, 6, 12, 18, 24, 30, 36, 42 and 48 using High Range AFP kit as per manufacturer's instructions.
Mouse experiments were performed in accordance with the guidelines approved by the Institutional Animal Care and use committee of Washington Biotechnology Inc (Baltimore, Md.) where the studies were conducted. (FIG. 66) Test agents were dissolved in chremophor/ethanol (1:1) to make a 5× stock solution and diluted in water when used. MHCC97H human liver cells (5×106) in PBS were mixed with 20% Matrigel and then inoculated orthotopically into the right flank of female Balb/c nude mice. Seven days after cell inoculation, the mice were randomly allocated to either the treatment group (n=12) or the control group (n=12) based on the levels of AFP. The daily animal inspection was conducted for general appearance and tumor growth. […]

[5] = system: MHCC97H human liver cells; assay: Orthotopic tumor induction in athymic nude mice; assay type: in vivo; settings: oral, once daily day 12 to 47; milciclib 30 mg/kg/day, sorafenib 20 mg/kg/day; vs vehicle
Experimental: Mouse experiments were performed in accordance with the guidelines approved by the Institutional Animal Care and use committee of Washington Biotechnology Inc (Baltimore, Md.) where the studies were conducted. (FIG. 66) Test agents were dissolved in chremophor/ethanol (1:1) to make a 5× stock solution and diluted in water when used. MHCC97H human liver cells (5×106) in PBS were mixed with 20% Matrigel and then inoculated orthotopically into the right flank of female Balb/c nude mice. Seven days after cell inoculation, the mice were randomly allocated to either the treatment group (n=12) or the control group (n=12) based on the levels of AFP. The daily animal inspection was conducted for general appearance and tumor growth. Milciclib (30 mg/Kg), sorafenib (20 mg/Kg), milciclib+sorafenib or the corresponding vehicle was given orally to individual mice once daily from day 12 until day 47. After completion of the treatment at day 48, animals were euthanized and blood, liver tissues and tumor were collected for gene expression and mechanistic assays. Liver tumors developed 100% of animals challenged with orthotopic MHCC97H injection.

miR-221 and miR-222 = assay: miRNA isolation and expression analysis of tumor tissues; assay type: in vivo; settings: tumor tissues from orally treated mice, vs vehicle
Experimental: miRNA from athymic nude mice following treatment with vehicle, milciclib, sorafenib, or milciclib+sorafenib was isolated from Total RNA using the TaqMan Advanced miRNA cDNA Synthesis Kit (Thermo Fisher Scientific, Rockford, Ill.) according to the manufacturer's instructions. miRNA-221 and miR-222 quantifications were performed in duplicates using TaqMan Advanced miRNA Assay (Thermo Fisher Scientific, Rockford, Ill.) with a sample dilution of 1:10. The PCR mixture was incubated at 95° C. for 20 seconds, followed by 40 cycles of 95° C. for 3 seconds and 60° C. for 30 seconds. Results were normalized to hsa-miR-192-5p as reference miRNA and the relative gene expression calculated as 2−ΔCT was expressed as fold increase over control samples.
Tumor tissues from mice treated with vehicle, sorafenib, milciclib, milciclib+sorafenib and normal liver tissues from naïve untreated mice were collected and levels of miR-221 and miR-222 were determined. The levels of both of miR-221 and miR-222 were elevated in tumors from vehicle treated mice.

[6] = Homo sapiens, MHCC97H, individual inhibitor, 72 hours, WST-1, read-out: MHCC97H IC50
[7] = Homo sapiens, MHCC97H cells, in combination with fixed 1.3 μM milciclib, read-out: IC50 (μM) KINASE INHIBITORS + 1.3 μM MILCICLIB
[8] = Homo sapiens, MHCC97H cells, inhibitor alone (synergy studies), read-out: IC50 (μM) OF KINASE INHIBITORS
[9] = MHCC97H cells, in combination with fixed 1.3 μM milciclib, read-out: IC50 (μM) KINASE INHIBITORS + 1.3 μM MILCICLIB
[10] = HepG2.2.15, individual inhibitor, 72 hours, WST-1
[11] = Homo sapiens, MHCC97H, 72 h, MHCC97H cells, inhibitor alone (synergy studies), read-out: IC50 (μM) OF KINASE INHIBITORS

| SMILES | IC50 (MHCC97H cells [1]; [6]) | IC50 (MHCC97H cells [1]; [7]) | IC50 (MHCC97H cells [1]; [8]) | invasion potential (MHCC97H cells [2]) | invasion potential (MHCC97L cells [3]) | IC50 (HepG2.2.15 cells; HepG2.2.15, 72 h) | IC50 (MHCC97L cells [4]) | IC50 (MHCC97H cells [1]; Homo sapiens, 72 h, MHCC97H cells, inhibitor alone (synergy studies), read-out: IC50 (μM) OF KINASE INHIBITORS) | IC50 (MHCC97H cells [1]; [9]) | IC50 (HepG2.2.15 cells; [10]) | IC50 (MHCC97H cells [1]; [11]) | IC50 (MHCC97H cells [1]; Homo sapiens, MHCC97H, MHCC97H cells, in combination with fixed 1.3 μM milciclib, read-out: IC50 (μM) KINASE INHIBITORS + 1.3 μM MILCICLIB) | IC50 (MHCC97H cells [1]; Homo sapiens, MHCC97H, MHCC97H cells, inhibitor alone (synergy studies), read-out: IC50 (μM) OF KINASE INHIBITORS) | serum AFP levels (alpha-fetoprotein (AFP)) | reducing tumor growth [5] | expression of miR-221 and miR-222 (miR-221 and miR-222) | IC50 (MHCC97H cells [1]; Homo sapiens, MHCC97H, 72 h, individual inhibitor, 72 hours, WST-1, read-out: MHCC97H IC50) |
| --- | --- | --- | --- | --- | --- | --- | --- | --- | --- | --- | --- | --- | --- | --- | --- | --- | --- |
| COc1cc2nccc(Oc3ccc(NC(=O)NC4CC4)c(Cl)c3)c2cc1C(N)=O [LENVATINIB, lenvatinib] | 0.28 µM | 0.12 µM | 0.28 µM | reduced the invasion potential to a greater extent | reduced the invasion potential to a greater extent | 0.24 µM | 0.14 µM |  |  |  |  |  |  |  |  |  |  |
| CC(=O)c1c(C)c2cnc(Nc3ccc(N4CCNCC4)cn3)nc2n(C2CCCC2)c1=O [PALBOCICLIB, palbociclib] | 14.5 µM |  |  |  |  | 11.1 µM | 8.2 µM | 14.5 µM | 6.7 µM |  |  |  |  |  |  |  |  |
| CNC(=O)c1cc(Oc2ccc(NC(=O)Nc3ccc(Cl)c(C(F)(F)F)c3)c(F)c2)ccn1 [REGORAFENIB, regorafenib] | 4.7 µM | 1.9 µM | 4.7 µM | reduced the invasion potential to a greater extent | reduced the invasion potential to a greater extent |  | 3.5 µM |  |  | 3.94 µM |  |  |  |  |  |  |  |
| CNC(=O)c1cc(Oc2ccc(NC(=O)Nc3ccc(Cl)c(C(F)(F)F)c3)cc2)ccn1 [SORAFENIB, sorafenib] | 12 µM |  |  | reduced the invasion potential to a greater extent | reduced the invasion potential to a greater extent |  | 8.8 µM |  |  | 6.48 µM | 12 µM | 6.7 µM | 12 µM | Significantly lower | 21% | modestly reduced |  |
| CCN(CC)CCNC(=O)c1c(C)[nH]c(/C=C2\C(=O)Nc3ccc(F)cc32)c1C [SUNITINIB, sunitinib] |  |  |  |  |  |  | 8.2 µM |  | 17.2 µM | 25.4 µM | 30.4 µM |  |  |  |  |  | 30.5 µM |
